Reference: US11786606B2, “Site-specific quantitation of drug conjugations” (Regeneron Pharmaceuticals, Inc., priority 2019, dated 2023)

Molecular target: T1, papain (Carica papaya, UniProt P00784)
T1 sequence (P00784 134-345): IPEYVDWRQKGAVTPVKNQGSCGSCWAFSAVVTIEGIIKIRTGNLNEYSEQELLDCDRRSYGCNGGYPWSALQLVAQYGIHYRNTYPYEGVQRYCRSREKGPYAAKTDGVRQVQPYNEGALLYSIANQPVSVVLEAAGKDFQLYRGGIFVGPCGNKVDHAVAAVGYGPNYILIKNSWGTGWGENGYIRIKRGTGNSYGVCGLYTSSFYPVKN
Assay: Papain digestion to remove drug payloads from ADC linkers, monitored by LC-MS peak areas of surrogate peptides
Type: biochemical
Settings: papain to substrate ratio 1:200; peak areas of peptides containing cleaved linker
Method: According to the concentration of ADC samples, transfer 25 μg of each ADC sample to a new microcentrifuge tube and add water to a total volume of 10 μL. Dilute 20 uL of papain suspension (10 mg/mL) with 180 uL of papain digestion buffer, incubate at 37° C. for 30 min. Dilute 30 uL of papain (nominal concentration of 1 mg/mL) with 120 uL of activation buffer to a nominal concentration of 0.2 mg/mL. Measure papain concentration with UV (ultra-violate) measurement at 280 nm and 320 nm using papain activation buffer as the blank buffer. Dilute activated papain to a final concentration of 0.1 mg/mL with papain activation buffer. Add 1.25 uL of 0.1 mg/mL papain solution (enzyme:substrate ratio is 1:200) to intact ADC, incubate at 37° C. for 1 h. Add 0.5 μL of 0.1 M TCEP-HCl to each sample. Vortex the samples for 3 seconds, and then spin down the samples using a Minicentrifuge for 3 seconds. Incubate samples at 95° C. for 20 minutes with shaking at 800 rpm in a thermomixer. Following incubation, cool down the samples to room temperature for 5 minutes. Spin down the condensation using a Minicentrifuge for 3 seconds. Add 6 μL of 8 M urea in 1 M Tris-HCl, pH 7.5 to each sample. […]
Papain was used to remove the payloads of MAB1-LK1 ADCs. […] Two tryptic peptides, e.g., SCDK (serine-cysteine-aspartic acid-lysine) (SEQ ID NO: 7) and GEC (glycine-glutamic acid-cysteine), were analyzed using LC-MS. […]

Substance	incubation time for completion of papain digestion to remove drug payloads (cleaved linker monitored)
mal-amido-PEG8-VA-PABA [LK1]	one
mal-amido-Val-Cit-PABA [LK3]	one
